Laboratory results from patent US11648254B2 (Kumquat Biosciences Inc., priority 2021, dated 2023).
Like-named read-outs stand apart in the source and are kept apart here.

How the values were obtained:
[1] = target: SOS1 (Homo sapiens (Human), UniProt Q07889); assay: Ras-SOS interaction assay (HTRF); format: biochemical
[2] = tested on: ERK phosphorylation (p-ERK 1/2 Thr202/Tyr204) in MIA PaCa-2 or NCI-H1975 cells; assay: ERK phosphorylation assay (AlphaLISA p-ERK 1/2); format: cell-based; conditions: MIA PaCa-2 cells or EGFR mutant NCI-H1975 cells; read-out: IC50 for the inhibition of ERK phosphorylation
Description: MIA PaCa-2 cells (ATCC CRL-1420) expressing K-Ras G12C is grown in DMEM/Ham's F12 medium supplemented with 10% fetal calf serum, glutamine and ˜2.5% horse serum. Alternatively, other cell lines with aberrant Ras signaling output can be utilized. Non-limiting exemplary cell lines include NCI-H358 and H1975. Cells are plated in 96-well plates at a concentration of 40,000 cells/well and allowed to attach for at least 8 hours. Following, diluted solutions of test inhibitor compounds are added to the cell culture. After ˜2 hours of incubation, the medium is removed and lysis buffer from AlphaLISA® SureFire® Ultra™ p-ERK 1/2 (Thr202/Tyr204) assay kit (Perkin Elmer ALSU-PERK-A10K) is added to the cells. The plate is agitated for 10 min at room temperature and 10 μL of the lysate is transferred to a 384-well Optiplate™ (Perkin Elmer) for assay. Thereafter ˜5 μL of Acceptor Mix from the p-ERK AlphaLISA assay kit is added to wells and plate is sealed with adhesive film. The samples are incubated for one hour at room temperature. Following, 5 μL of Donor Mix is added to the wells and plate is re-sealed with adhesive film, and incubated for one hour at room temperature. The plate is then read on a multimode microplate reader (e.g., SPARK©Tecan) equipped with Alpha detection module. The data can be fitted to four-parameter dose-response curve using Prism version 9 (GraphPad) to calculate an IC50 for the inhibition of ERK phosphorylation. […] 355, 332, 366, 216, 264, 356, 266, in an ERK phosphorylation assay utilizing either MIA PaCa-2 cells (ATCC CRL-1420) or EGFR mutant cell line (NCI-H1975 (ATCC CRL-5908)).

[3] = tested on: MIA PaCa-2 cells (K-Ras G12C); assay: Ras-SOS cellular growth inhibition assay (CellTiter-Glo, 3D); format: cell-based; conditions: Homo sapiens
Method in brief: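 Growth read by CellTiter-Glo luminescence about 5 days after dosing with 3-fold dilutions (9 points), added one day post-seeding. Cells: MIA PaCa-2, 3D culture on ultra-low-attachment surface, medium DMEM/Ham's F12 plus 10% FCS and 2.5% horse serum; IC50 by four-parameter fit.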

[4] = tested on: NCI-H1975 cells (EGFR T790M L858R); assay: EGFR-SOS cellular inhibition assay (CellTiter-Glo, 3D); format: cell-based; conditions: Homo sapiens
[5] = In vitro plasma protein binding (PPB); format: in vitro ADME; conditions: percentage of free/unbound compound
[6] = Metabolic (microsomal) stability assay; format: in vitro ADME; conditions: mouse liver microsomes, T1/2; read-out: DMPK-invitro-metabolic Stability (Mouse T1/2)
Description: Example 12: Metabolic (Microsomal) Stability Assay

[7] = K-RasG13D utilized, read-out: IC50 inhibition of SOS
[8] = K-RasG13D, read-out: IC50 value against SOS1
[9] = MIA PaCa-2, 120 h, MIA PaCa-2, 3D proliferation, about 5 days, read-out: Bio-Cell-Prolif-3D (MiaPaca2 IC50)
[10] = MIA PaCa-2, MIA PaCa-2, read-out: IC50 in inhibiting MIA PaCa-2 cell growth
[11] = 120 h, NCI-H1975, 3D proliferation, about 5 days, read-out: Bio-Cell-Prolif-3D (H1975 IC50)
[12] = NCI-H1975, EGFR T790M L858R, read-out: IC50 in inhibiting growth of NCI-H1975 cell line

SOS1, sequence (Q07889 564-1049): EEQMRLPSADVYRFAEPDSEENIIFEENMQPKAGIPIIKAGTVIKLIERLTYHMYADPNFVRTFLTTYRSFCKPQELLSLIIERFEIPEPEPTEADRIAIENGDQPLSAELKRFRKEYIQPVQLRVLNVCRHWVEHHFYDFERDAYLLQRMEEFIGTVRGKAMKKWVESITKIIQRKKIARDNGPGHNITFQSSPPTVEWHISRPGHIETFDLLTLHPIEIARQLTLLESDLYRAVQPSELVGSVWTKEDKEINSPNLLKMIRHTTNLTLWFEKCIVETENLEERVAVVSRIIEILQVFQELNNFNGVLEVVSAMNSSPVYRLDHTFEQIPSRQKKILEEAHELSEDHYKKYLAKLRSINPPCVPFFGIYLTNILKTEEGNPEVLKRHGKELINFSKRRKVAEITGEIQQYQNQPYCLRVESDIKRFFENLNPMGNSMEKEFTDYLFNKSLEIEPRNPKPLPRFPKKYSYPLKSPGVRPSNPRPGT

IC50 [1, 7] [nM] | IC50 [1, 8] [nM] | IC50 [2] [nM] | IC50 [3, 9] [nM] | IC50 [3, 10] [nM] | IC50 [4, 11] [nM] | IC50 [4, 12] [nM] | DMPK-invitro-PPB (Mouse Unbound) [%] [5] [%] | half-life [6] [h] | SMILES
< 100 | < 50 | < 1000 | ≤ 1000 | < 500 | ≤ 1000 | < 500 | – | – | COc1nc2nc(C)nc(N[C@H](C)c3cccc(C(F)(F)[C@H](C)O)c3)c2cc1C1(C#N)CC1 [Compound 216, 1-(4-(((R)-1-(3-((S)-1,1-difluoro-2-hydroxypropyl)phenyl)ethyl)amino)-7-methoxy-2-methylpyrido[2,3-d]pyrimidin-6-yl)cyclopropane-1-carbonitrile]
< 100 | < 50 | < 1000 | ≤ 1000 | < 500 | ≤ 1000 | < 500 | 4.94 | 0.918 | COc1nc2ncnc(N[C@H](C)c3cccc(C(F)(F)[C@@H](C)O)c3)c2cc1C1(C#N)CC1 [Compound 264, 1-(4-(((R)-1-(3-((R)-1,1-difluoro-2-hydroxypropyl)phenyl)ethyl)amino)-7-methoxypyrido[2,3-d]pyrimidin-6-yl)cyclopropane-1-carbonitrile]
< 100 | < 50 | < 1000 | ≤ 1000 | < 500 | ≤ 1000 | < 500 | – | – | COc1nc2ncnc(N[C@H](C)c3cccc(C(F)(F)[C@H](C)O)c3)c2cc1C1(C#N)CC1 [Compound 266, 1-(4-(((R)-1-(3-((S)-1,1-difluoro-2-hydroxypropyl)phenyl)ethyl)amino)-7-methoxypyrido[2,3-d]pyrimidin-6-yl)cyclopropane-1-carbonitrile]
< 100 | – | – | ≤ 1000 | – | ≤ 1000 | – | 0.47 | 1.18 | Cc1nc(N[C@H](C)c2cccc(C(F)(F)F)c2F)c2cc(C3(C#N)CC3)c(Cl)nc2n1 [Compound 300, (R)-1-(7-chloro-4-((1-(2-fluoro-3-(trifluoromethyl)phenyl)ethyl)amino)-2-methylpyrido[2,3-d]pyrimidin-6-yl)cyclopropane-1-carbonitrile]
< 100 | < 50 | – | ≤ 1000 | < 500 | ≤ 1000 | < 500 | 2.34 | 2.18 | COc1nc2ncnc(N[C@H](C)c3cccc(C(F)(F)[C@H](C)O)c3F)c2cc1C1(C#N)CC1 [Compound 327, 1-(4-(((R)-1-(3-((S)-1,1-difluoro-2-hydroxypropyl)-2-fluorophenyl)ethyl)amino)-7-methoxypyrido[2,3-d]pyrimidin-6-yl)cyclopropane-1-carbonitrile]
< 100 | < 50 | – | ≤ 1000 | < 500 | ≤ 1000 | < 500 | 2.72 | 2 | COc1nc2ncnc(N[C@H](C)c3cccc(C(F)(F)[C@@H](C)O)c3F)c2cc1C1(C#N)CC1 [Compound 329, 1-(4-(((R)-1-(3-((R)-1,1-difluoro-2-hydroxypropyl)-2-fluorophenyl)ethyl)amino)-7-methoxypyrido[2,3-d]pyrimidin-6-yl)cyclopropane-1-carbonitrile]
< 100 | < 50 | < 1000 | ≤ 1000 | < 500 | ≤ 1000 | < 500 | 0.3 | 0.502 | COc1nc2nc(C)nc(N[C@H](C)c3cccc(C(F)(F)[C@@H](C)O)c3F)c2cc1C1(C#N)CC1 [Compound 332, 1-(4-(((R)-1-(3-((R)-1,1-difluoro-2-hydroxypropyl)-2-fluorophenyl)ethyl)amino)-7-methoxy-2-methylpyrido[2,3-d]pyrimidin-6-yl)cyclopropane-1-carbonitrile]
< 100 | – | – | ≤ 1000 | < 500 | ≤ 1000 | < 500 | 0.52 | > 3.33 | C[C@@H](Nc1ncnc2nc(Cl)c(C3(C#N)CC3)cc12)c1cccc(C(F)(F)F)c1F [Compound 354, (R)-1-(7-chloro-4-((1-(2-fluoro-3-(trifluoromethyl)phenyl)ethyl)amino)pyrido[2,3-d]pyrimidin-6-yl)cyclopropane-1-carbonitrile]
< 100 | < 50 | < 1000 | ≤ 1000 | < 500 | ≤ 1000 | < 500 | 0.89 | > 3.33 | COc1nc2ncnc(N[C@H](C)c3cccc(C(F)(F)C(C)(C)O)c3)c2cc1C1(C#N)CC1 [Compound 355, (R)-1-(4-((1-(3-(1,1-difluoro-2-hydroxy-2-methylpropyl)phenyl)ethyl)amino)-7-methoxypyrido[2,3-d]pyrimidin-6-yl)cyclopropane-1-carbonitrile]
< 100 | < 50 | < 1000 | ≤ 1000 | < 500 | ≤ 1000 | < 500 | 0.48 | > 3.33 | COc1nc2ncnc(N[C@H](C)c3cccc(C(F)(F)C(C)(C)O)c3F)c2cc1C1(C#N)CC1 [Compound 356, (R)-1-(4-((1-(3-(1,1-difluoro-2-hydroxy-2-methylpropyl)-2-fluorophenyl)ethyl)amino)-7-methoxypyrido[2,3-d]pyrimidin-6-yl)cyclopropane-1-carbonitrile]
< 100 | < 50 | < 1000 | ≤ 1000 | < 500 | ≤ 1000 | < 500 | 1.32 | 0.428 | COc1nc2nc(C)nc(N[C@H](C)c3cccc(C(F)(F)[C@@H](C)O)c3)c2cc1C1(C#N)CC1 [Compound 366, 1-(4-(((R)-1-(3-((R)-1,1-difluoro-2-hydroxypropyl)phenyl)ethyl)amino)-7-methoxy-2-methylpyrido[2,3-d]pyrimidin-6-yl)cyclopropane-1-carbonitrile]
